Publication PMC10616201, “Antioxidant and α-glucosidase inhibitory activities of compound isolated from Stachytarpheta jamaicensis (L) Vahl. leaves” (Scientific Reports, 2023)

Target: T1, α-glucosidase (EC 3.2.1.20; rat intestinal acetone powder)
T1 construct: gene Si; crude supernatant of rat intestinal acetone powder (Sigma 1639) in normal saline; native, unpurified; maltase activity read as glucose release
Experiment: glucose release from maltose, glucose kit, absorbance […] nm
Assay type: biochemical
Details: 10 mM maltose, 0.1 M buffer pH 6.9, 10 min, crude rat intestinal supernatant

SMILES: COC(=O)C1=CO[C@@H](O[C@@H]2O[C@H](CO)[C@@H](O)[C@H](O)[C@H]2O)[C@H]2[C@]1(O)[C@H](O)C[C@]2(C)O [compound 1, 6β-hydroxyipolamiide]
- α-Glucosidase inhibition / IC50: 537.79 ± 45.04 µg/mL
